Measured values taken from patent publication US9777014B2, “Tetrahydro-2H-pyrano[3,2-C]isochromene-6-ones and analogs for the treatment of inflammatory disorders” (Council of Scientific & Industrial Research, priority 2013, dated 2017).
Entries after “also recorded” stand apart in the source; their conditions may differ.

Assays:
T-cell = assay: Effect on T-cell proliferation (Con-A stimulated spleen cells, MTT); type: cell-based; conditions: for inhibition of T-cell proliferation (in words): 0.1 μM-100 μM tested; for IC50: T-cell, Con-A stimulated spleen cells, 72 hrs, MTT
Experimental: Compounds provided in present invention were evaluated for their effect on T-cell proliferation. The protocol used for this bioassay is as follows: A single spleen cell suspension was prepared under sterile conditions and suspended in complete medium RPMI 1640 containing 10% Fetal calf serum (FCS). Spleenocytes were seeded into 4-5 wells of a 96-well flat bottom microtitre plate (Nunc) at (2×10^6 cells/ml). Thereafter, Concanavalin (Con-A) in the final concentration of 2.5 μg/well was added to stimulate T-cell, or LPS in the final concentration of 1 μg/ml was added to stimulate B-cell in the respective wells. Variable concentrations of compounds of the present invention (0.1 μM-100 μM) were added. Thereafter, the plates were incubated at 37° C. in 95% humidity at 5% CO2 in a CO2 incubator for 72 hrs. After 72 hours, 50 μl of MTT solution (5 mg/ml) was added to each well and the plates were incubated for 4 h. Thereafter, plates were centrifuged (400×g, 5 min.) and the untransformed MTT was removed. 200 μl of DMSO (192 μl with 8 μl 1N HCl) was added to each well, and the absorbance was determined in an ELISA reader at 570 nm after 15 min (Life Sci. 2007, 80, 1525-1538).

TNF-α [1] = assay: TNF-α in cell supernatant of macrophages, ex vivo LPS-induced model; parameters: species or system Balb/c mice
Excerpt: (§1) Macrophages are the main source of cytokines in inflammation. Lipopolysaccharides LPS may stimulate macrophages to produce large quantities of proinflammatory cytokines that promote inflammation. In this study, we investigated the effect of compounds 1-3 on the expression and secretion of cytokines (TNF-α/IL-6) in vivo in cell supernatant and serum. For this study, male Balb/c mice (5-6 weeks of age) were maintained under pathogen-free conditions in an animal housing unit in a temperature-controlled (23±2° C.) and light-controlled (12 h light/dark cycle) room. Animals were provided standard rodent chow and water ad libitum. Female Balb/C mice (8-10 weeks) were obtained from animal house, 3 or 4 per cage with a 12 h light/dark cycle, provided standard water ad libitum, and acclimated to their environment at least a week before the start of experiments. One hour prior to the start of each experiment, feed and water were removed from the cages. Mice were treated with 10 mg/kg and 100 mg/kg of compounds 1-3 orally over a period of 5 days. LPS 10 μg/ml was injected and blood as well macrophages were collected. The dose was selected based on in vitro result.
(§2) Ex vivo determination of TNF-α, IL-6 & IL-1β in cell supernatant: Blood for serum cytokines production was collected from each treated and untreated animals before the collection of macrophages from peritoneal cavity. Cells were seeded in 96-well plates at 5×10^5 cells mL^−1. Cells were then stimulated with 1 μg mL^−1 LPS for 4 hrs. The cell supernatant was stored at −80° C. The production of TNF-α, IL-6, IL-1β and NO in macrophages cell supernatants of LPS-challenged mice were measured by commercial ELISA kits (B. D. Pharmingenin; R&D systems, Inc., Minneapolis, Minn., USA) and cytokine concentration was determined (J. Am. College Nutr. 2004, 23, 71-78).

TNF-α [2] = assay: TNF-α production in Con A/LPS stimulated splenocytes (ELISA); type: cell-based; conditions: for IC50: Splenocyte, splenocytes, Con A or LPS, 72 h, ELISA; for inhibition of TNF-α production (in words): at low micromolar to nanomolar concentrations
Experimental: (§3) Splenocytes were seeded into three to four wells of a 96-well flat-bottom microtiter plate (Nunc) at 2×10^6 cells/ml. Cells were incubated with different concentrations of compounds (0.1 μM-100 μM) along with Con A (2.5 μg/well) or LPS (1 μg/ml) for 72 h at 37° C. with 5% CO2 in CO2 incubator. The culture supernatants were harvested and the measurement of cytokines (TNF-α and IL-6) in the culture supernatants was carried out using commercial kits as per manufacturer's instructions by using ELISA kits (R&D, USA) (Life Sci. 2007, 80, 1525-1538; J. Immunol. Methods 1983, 65, 55-63).

IL-1β = IL-1β production in stimulated splenocytes; type: cell-based; conditions: at low micromolar to nanomolar concentrations
IL-6 [3] = assay: IL-6 in cell supernatant of macrophages, ex vivo LPS-induced model; parameters: species or system Balb/c mice
Excerpt: as §1, §2

IL-4 = IL-4 production in stimulated splenocytes; type: cell-based; conditions: at low micromolar to nanomolar concentrations
TNF-α [4] = assay: TNF-α in serum, in-vivo LPS-induced model; parameters: species or system Balb/c mice; conditions: for TNF-α in serum: in-vivo LPS-induced model; for activity against TNF-α in in-vivo LPS model compared with bergenin (1): Table 3, serum
Excerpt: as §1
(§4) Measurement of in vivo serum levels of TNF-α and IL-6: The mice were divided into 4 groups: no treatment group, injected with phosphate buffered saline (PBS); LPS only; LPS+Dexamethasone (0.05 μg/ml); or LPS+compound 1 at 10 and 100 μM doses (n=6 for each group). Groups were pretreated orally with 200 μl of PBS, dexamethasone or compounds 1, 2, 3 for 45 min. Lipopolysaccharide (100 nM) was then administered (200 μL) i.p for treatment groups, and RPMI was administered i.p for the negative control group.
(§5) Ex vivo TNF-α and IL-6 determination by ELISA: Blood was allowed to clot overnight at 4° C. Serum was analyzed for IL-6, TNF-α, and IL-1β by ELISA. IL-6 analysis was performed using purified and biotin-conjugated rat anti-mouse IL-6 antibodies from PharMingen (San Diego, Calif.) as described previously. Streptavidin—peroxidase (Sigma) and 3,3′,5,5′-tetramethylbenzidine (TMB, Fluka, Ronkonkoma, N.Y.) were used for detection. Absorbance was read at 450 nm using a Vmax™ Kinetic Microplate Reader (Molecular Devices, Menlo Park, Calif.). For TNF-α analysis the OptEIA Set: Mouse TNF-α (Mono/Poly) kit was employed (PharMingen) (J. Immunol. Methods 1983, 65, 55-63).

IL-6 [5] = assay: IL-6 production in Con A/LPS stimulated splenocytes (ELISA); type: cell-based; conditions: for IC50: Splenocyte, splenocytes, Con A or LPS, 72 h, ELISA; for inhibition of IL-6 production (in words): at low micromolar to nanomolar concentrations
Experimental: as §3

IL-6 [6] = assay: IL-6 in serum, in-vivo LPS-induced model; parameters: species or system Balb/c mice
Excerpt: as §1, §4, §5

nitric oxide (NO) = assay: Nitric oxide (NO) in serum, in-vivo LPS-induced model (Griess assay); parameters: species or system Balb/c mice
Excerpt: as §1, §4
NO determination by Griess assay: NO production was indirectly assessed by measuring the nitrite level in the cultured media and serum determined by a colorimetric method based on the griess reaction. The cells were incubated with cinnamic aldehyde, cinnamic alcohol, cinnamic acid, coumarin (0, 6.25, 12.5, 25, and 50 μM) in presence of LPS (100 ng/mL) at 37° C. for 24 h. Then, cells were dispensed into 96-well plates, and […] of each supernatant was mixed with the same volume of griess reagent (1% sulfanilamide, 0.1% naphthyl ethylenediamine dihydrochloride and 5% phosphoric acid) and incubated at room temperature for 10 min., the absorbance was measured at 540 nm with a Micro-Reader (Molecular Devices, Orleans Drive, Sunnyvale, Calif.). Serum samples were diluted four times with distilled water and deproteinized by adding 1/20 volume of zinc sulphate (300 g/L) to final concentration of 15 g/L. After centrifugation at 10,000×g for 5 min at room temperature, 100 μL supernatant was applied to a microtitre plate well, followed by 100 μL of Griess reagent. After 10 min of color development at room temperature, the absorbance was measured at 540 nm with a Micro-Reader. By using sodium nitrite to generatea standard curve, the concentration of nitrite was measured by absorbance at 540 nm (J. Ethnopharmacology, 2011, 135, 545-552).

Row | SMILES | IC50 (T-cell) [nM] | TNF-α in cell supernatant of macrophages (TNF-α [1]; Dose 10 (μM as printed)) | TNF-α in cell supernatant of macrophages (TNF-α [1]; Dose 100 (μM as printed)) [pg/mL] | IC50 (TNF-α [2]) [nM] | IL-6 in cell supernatant of macrophages (IL-6 [3]; Dose 10 (μM as printed)) [ng/mL] | IL-6 in cell supernatant of macrophages (IL-6 [3]; Dose 100 (μM as printed)) [ng/mL] | TNF-α in serum (TNF-α [4]; Dose 10 (μM as printed)) [pg/mL] | TNF-α in serum (TNF-α [4]; Dose 100 (μM as printed)) [pg/mL] | IC50 (IL-6 [5]) [nM] | IL-6 in serum (IL-6 [6]; Dose 10 (μM as printed)) [ng/mL] | IL-6 in serum (IL-6 [6]; Dose 100 (μM as printed)) [ng/mL] | NO in serum (nitric oxide (NO); Dose 10 (μM as printed)) [µM] | NO in serum (nitric oxide (NO); Dose 100 (μM as printed)) [µM] | inhibition of T-cell proliferation (in words) (T-cell) | inhibition of TNF-α production (in words) (TNF-α [2]) | inhibition of IL-1β production (in words) (IL-1β) | inhibition of IL-4 production (in words) (IL-4) | activity against TNF-α in in-vivo LPS model compared with bergenin (1) (TNF-α [4]) | inhibition of IL-6 production (in words) (IL-6 [5]) | other results
1 | COc1c(O)cc2c(c1O)[C@@H]1O[C@H](CO)[C@@H](O)[C@H](O)[C@H]1OC2=O [Compound 1, Bergenin, reference compound] | 100 | 89 ± 6.1 pg/mL | 78 ± 4.9 | 630 | 24.6 ± 6.9 | 53.5 ± 7.5 | 667 ± 208 | 509 ± 185 | < 100 | 282 ± 98 | 55 ± 12 | 2.62 ± 0.62 | 3.29 ± 0.88 | – | – | – | – | – | – | inhibition of T-cell proliferation (in words) (T-cell; listed as Bergenin (1)): showed inhibition; also recorded: most potent; inhibition of TNF-α production (in words) (TNF-α [2]; listed as Bergenin (1)): showed inhibition; also recorded: most potent; inhibition of IL-1β production (in words) (IL-1β; listed as Bergenin (1)): showed inhibition; also recorded: most potent; inhibition of IL-4 production (in words) (IL-4; listed as Bergenin (1)): showed inhibition; also recorded: most potent; inhibition of IL-6 production (in words) (IL-6 [5]; listed as Bergenin (1)): showed inhibition; also recorded: most potent
2 | CCN(CC)Cc1c(O)c(OC)c(O)c2c1C(=O)OC1C2OC(CO)C(O)C1O (centres unmarked) [Compound 2, 7-((Diethylamino)methyl)-2,3,4,4a-tetrahydro-3,4,8,10-tetrahydroxy-2-(hydroxymethyl)-9-methoxypyrano[3,2-c]isochromen-6(10bH)-one] | < 100 | 102 ± 12^ pg/ml | 89 ± 6.4 | < 100 | 41.4 ± 8.9 | 17.3 ± 3.0 | 585 ± 192 | 388 ± 115 | < 100 | 102 ± 40 | 275 ± 65 | 5.0 ± 0.80 | 3.0 ± 0.73 | most potent | most potent | most potent | most potent | better activity than bergenin (1) | most potent | –
3 | COc1c(O)c(CN2CCN(C)CC2)c2c(c1O)C1OC(CO)C(O)C(O)C1OC2=O (centres unmarked) [Compound 3, 2,3,4,4a-Tetrahydro-3,4,8,10-tetrahydroxy-2-(hydroxymethyl)-9-methoxy-7-((4-methylpiperazin-1-yl)methyl)pyrano[3,2-c]isochromen-6(10bH)-one] | 6100 | 78 ± 4.9 pg/mL | 84 ± 6.7 | < 100 | 12.1 ± 2.81 | 21.1 ± 3.2 | 672 ± 221 | 398 ± 62 | < 100 | 282 ± 98 | 58 ± 12 | 2.87 ± 0.73 | 1.24 ± 0.25 | most potent | most potent | most potent | most potent | better activity than bergenin (1) | most potent | –
